Measured values from paper PMC8594108, “In vitro growth inhibitory activity of Medicines for Malaria Venture pathogen box compounds against Leishmania aethiopica” (BMC Pharmacology & Toxicology, 2021).
“And” between values parts separate entries of the source, which are not always exact repeats. Identical values can stand only once. Like-named read-outs stand apart in the source and are kept apart here.

Assays:
[1] = system: L. aethiopica promastigotes; test: Primary antipromastigote assay (resazurin based); type: cell-based; conditions: Leishmania aethiopica, 72 h; for IC50: dose titration 0.03 to 1 μM, average of two independent experiments in triplicate, read-out: IC50 (95% CI) against Leishmania aethiopica promastigotes
Protocol: Test compounds were diluted in 96-well microculture plate containing 100 μL complete M199 medium. […] The Parasite density was kept constant at 1 × 10^5 per well. After 68 h of incubation, 10 μL of fluorochrome resazurin solution (Sigma-Aldrich, Co., St. […] The percentage of inhibition (%) was calculated for each concentration using the following formula: Inhibition%=100−Fluorescence in duplicate drug wells-Fluorescence in blank wells/Fluorescence control wells−Fluorescence in blank wells∗100

[2] = system: intracellular L. aethiopica amastigotes; test: Intracellular amastigote assay in mouse peritoneal macrophages; type: cell-based, Leishmania aethiopica; conditions: for IC50 / inhibition at 1 µM: Leishmania aethiopica, Peritoneal macrophage, 72 h; for IC50: mouse peritoneal macrophages, read-out: IC50 against intracellular L. aethiopica amastigotes; for inhibition at 1 µM: read-out: percentage of inhibition of intracellular amastigotes
Protocol: Intracellular amastigote assay was conducted according to the method described elsewhere with modifications. Approximately 3 × 10^5 peritoneal macrophages were seeded in 24-well plates and allowed to adhere for 12 h at 33 °C in 5% CO2. Adherent cells were infected with late-stage L. aethiopica promastigotes (1:10 ratio) after washing out non-adherent cells twice. Only when > 70% of the macrophages present in the wells were infected was the infection deemed sufficient. The medium was then replaced with a fresh complete medium with or without test compounds and incubated for 72 h at 33 °C and 5% CO2. After 72 h of incubation, slides were washed with prewarmed PBS, fixed with methanol, and stained with Giemsa (10%) for 15 min and observed under 100x oil immersion objective microscope [Olympus]. Amphotericin B and pentamidine were used as reference drugs against test samples.
The IC50 was determined by counting amastigotes in (50) macrophages in duplicate cultures. In all assays except for haemolytic and THP- 1, test compounds were diluted in a two-fold dose-titration range (0.03 to 1 μM) in triplicate. Parasite burden was calculated using the infection index as shown below. Infection index=Number of infected macrophages/Total macrophage countedxTotal number of amastigotes in infected macrophages/Total infected macrophages counted

[3] = Haemolysis test; type: cell-based, sheep; conditions: sheep
Protocol: (§1) The mixture was then centrifuged at 1000 g for 10 min. 75 μL of the resulting supernatant were transferred to 96-well plates and the absorbance readings obtained at 540 nm using Victor3 Multilabel Counter (PerkinElmer, Waltham, USA).

[4] = THP-1 cell cytotoxicity assay (resazurin); type: cell-based; conditions: human
Protocol: (§2) Approximately 2 × 10^5 THP-1 cell suspension were added to 96-well microplate containing serially diluted 50 μL test compounds. Microplates were then incubated for 68 h at 37 °C in a 5% CO2 air mixture. Cell viability was determined with the resazurin- based fluorescence assay measured after a total incubation time of 72 h. The estimated median cell cytotoxicity (CC50) was calculated for each concentration using the formula: Cell viability%=Fluorescence in duplicate drug wells-Fluorescence blank wells/Fluorescence in control wells−Fluorescence blank wells∗100 The selectivity index of compounds was calculated from the ratio of the CC50 value determined in THP1 cells to the IC50 value determined from the dose-response curves in promastigote and amastigote assay using the following formula. Selectivity indexSI=CC50THP1cells/IC50promastigotes or amstigotes

[5] = ref NCBI PubChem [29]-[39]; cited from earlier work
[6] = system: sheep red blood cells (RBCs); test: Haemolysis test; type: cell-based; conditions: at 25 μM
Protocol: as §1

[7] = system: THP-1 cells; test: THP-1 cell cytotoxicity assay (resazurin); type: cell-based
Protocol: as §2

[8] = system: L. infantum; design: method as in MMV biological data; conditions: ref MMV biological data; cited from earlier work
[9] = system: MRC-5 cells; design: method as in MMV (MMV PB website); conditions: ref MMV (MMV PB website); read-out: IC50 against MRC-5 cells; cited from earlier work
[10] = system: PMM cells; design: method as in MMV (MMV PB website); conditions: ref MMV (MMV PB website); read-out: IC50 against PMM cells; cited from earlier work
[11] = hit map sheet with colour categories, negative values shown as 0.00, read-out: Percentage of inhibition against Leishmania aethiopica promastigotes
[12] = hit map sheet without colour categories, negative values kept, read-out: Percentage of inhibition against Leishmania aethiopica promastigotes
[13] = sheep red blood cells (2% blood suspension), 1.56–25 μM, 2 h, 37 °C, read-out: Cytotoxicity, CC50, Sheep RBC
[14] = THP-1 cells, 72 h, read-out: Cytotoxicity, CC50, THP-1

IC50 [2]	IC50 [1]	Structure (SMILES)	inhibition at 1 µM [1, 11]	inhibition at 1 µM [1, 12]	activities against the intracellular amastigotes (in words) [2]	CC50 at 2 h [3, 13]	CC50 at 72 h [4, 14]	R3 H+ bond receiver [5]	R6 Polar surface area [5]	inhibition at 1 µM [2]	CC50 at 2 h [3]	CC50 at 72 h [4]	hemolytic activity on sheep RBC [6]	CC20 on THP-1 cell line ([7]; 72 h)	Cytotoxicity, CC50 (extrapolated IC50), THP-1 ([7]; 72 h, extrapolated result)	Selectivity index (SI) ([7]; CC50 THP-1 cells / IC50 promastigotes or amastigotes)	IC50 [8]	IC50 [9]	IC50 [10]
277 ± 7.9 nM		C[C@@H]1[C@H](O)[C@@H](C)/C=C/C=C/C=C/C=C/C=C/C=C/C=C/[C@H](O[C@@H]2O[C@H](C)[C@@H](O)[C@H](N)[C@@H]2O)C[C@@H]2O[C@](O)(C[C@@H](O)C[C@@H](O)[C@H](O)CC[C@@H](O)C[C@@H](O)CC(=O)O[C@H]1C)C[C@H](O)[C@H]2C(=O)O [Amphotericin B, reference compound]	63%	63%															
435 ± 49.2 nM	448 nM	O=C(Nc1ccc(N2CCNCC2)cc1)c1ccn2ncc(-c3cccc(Cl)c3)c2n1 [MMV022478]	98.9%	98.9%		> 25 µM	> 25 µM	5	74.6 A^2	72.4 ± 5.6%									
277 ± 37.2 nM	283 nM	COc1cncc(-c2cncc(N3CCN(c4ccncc4)CC3)n2)c1 [MMV085071]	76.1%	76.1%		> 25 µM	> 25 µM	7	67.3 A^2	80.5 ± 4.2%									
		CN1CCCC1CCO[C@](C)(c1ccccc1)c1ccc(Cl)cc1 (stereo partly drawn) [MMV637229]						2											
	390 nM	CN1CCN(CCCOc2ncc(Nc3ncc(-c4ccc(C(F)(F)F)c(F)c4)nc3C(N)=O)cn2)CC1 [MMV687812]	72.9%	72.9%		> 25 µM	> 25 µM	13	122 A^2										
	356 nM	N=C(N)Nc1ccc(-c2ccc(-c3ccc(NC(=N)N)cc3Cl)o2)c(Cl)c1 [MMV688179, 2,5-Bis (2-chloro-4-guanidinophenyl) furan]	80.6%	80.6%		> 25 µM	> 25 µM	3	142 A^2										
76 ± 18.1 nM	158 nM	COc1ccc(Oc2ccc([C@@H](C)N(C)c3ncc4c(N)nc(N)nc4n3)cc2)cc1 [MMV690102]	95%			> 25 µM		9	125 A^2	90.7 ± 5.3%					36.5 µM and 36.55 µM and 36 µM	478.4	3 nM	5.4 µM	4 µM
		CCCCCCCCCCCCCCCCOP(=O)([O-])OCC[N+](C)(C)C [Miltefosine, reference compound]	35.3%	35.3%															
1600 ± 90 nM	1310 nM	N=C(N)c1ccc(OCCCCCOc2ccc(C(=N)N)cc2)cc1 [Pentamidine, reference compound]	64.7%	64.7%															

Structure (SMILES)	IC50 [2]	IC50 [1]	inhibition at 1 µM [1, 11]	inhibition at 1 µM [1, 12]	activities against the intracellular amastigotes (in words) [2]	CC50 at 2 h [3, 13]	CC50 at 72 h [4, 14]	R3 H+ bond receiver [5]	R6 Polar surface area [5]	inhibition at 1 µM [2]	CC50 at 2 h [3]	CC50 at 72 h [4]	hemolytic activity on sheep RBC [6]	CC20 on THP-1 cell line ([7]; 72 h)	Cytotoxicity, CC50 (extrapolated IC50), THP-1 ([7]; 72 h, extrapolated result)	Selectivity index (SI) ([7]; CC50 THP-1 cells / IC50 promastigotes or amastigotes)	IC50 [8]	IC50 [9]	IC50 [10]
CN1CCC(NCc2cccc(-c3ccc(S(=O)(=O)NCc4ccccc4)cc3)c2)CC1 [MMV022029]		305 nM	88%	88%	low	> 25 µM	> 25 µM	5	69.8 A^2										
O=C(Nc1cccc(Cl)c1)c1cnc(N2CCN(c3ccncc3)CC2)c(Cl)c1 [MMV024406]	900 ± 65.9 nM	24 nM	97.3%	97.3%	low	> 25 µM	> 25 µM	5	61.4 A^2	55.6 ± 5.5%									
Cc1cccc(C(=O)Nc2ccnc(N(C)C3CCN(CC(C)C)CC3)c2)c1 [MMV024829]	411 ± 56.6 nM	356 nM	82.4%	82.4%				4		69.6 ± 4.1%	> 25 µM	> 25 µM							
Clc1cccc(C(c2ccc(CN3CCNCC3)cc2)n2ccnc2)c1 (stereo not drawn) [MMV663250]		326 nM	81%	81%		> 25 µM	> 25 µM	3	33.1 A^2										
CO[C@@H]1CN(c2ccc(C#CC3(O)CN4CCC3CC4)c(Cc3ccccc3)n2)C[C@H]1O (stereo partly drawn) [MMV688415]	374 ± 45.4 nM	145 nM	98.7%			> 25 µM	> 25 µM	6		68.6 ± 6.6%			5.3%	25 µM					
